# Measured values published in publication PMC11375702, “Early Preclinical Studies of Ergosterol Peroxide and Biological Evaluation of Its Derivatives” (ACS Omega, 2024).
# Where two headings read alike, the source gives them in different places.
# What was measured:
# [1] = target: T1, CYP2C9 (Homo sapiens, UniProt P11712); experiment: Microsomal CYP inhibition assay, CYP2C9; assay type: in vitro ADME
# T1 construct: from tissue; host or cells: pooled human liver microsomes
# Method: (§1) To assess potential cardiotoxicity, we performed the human ether-go-go-related gene (hERG) inhibition assay. […] Briefly, EP was tested at six concentrations (cumulative concentration–response). […] For hepatotoxicity determination, we performed the microsomal CYP inhibition assay. Briefly, EP was incubated at seven increasing concentrations with pooled human liver microsomes. […] The supernatants were analyzed by LC-MS/MS.
# [2] = target: T2, hERG cardiac ion channel (Homo sapiens, UniProt Q12809); experiment: hERG channel inhibition assay (QPatch HTX, HEK-293); assay type: cell-based; conditions: hERG tail-current; read-out: hERG pIC50 (converted)
# T2 construct: expressed in transfected cells; host or cells: HEK-293
# T2 sequence (Q12809 whole entry): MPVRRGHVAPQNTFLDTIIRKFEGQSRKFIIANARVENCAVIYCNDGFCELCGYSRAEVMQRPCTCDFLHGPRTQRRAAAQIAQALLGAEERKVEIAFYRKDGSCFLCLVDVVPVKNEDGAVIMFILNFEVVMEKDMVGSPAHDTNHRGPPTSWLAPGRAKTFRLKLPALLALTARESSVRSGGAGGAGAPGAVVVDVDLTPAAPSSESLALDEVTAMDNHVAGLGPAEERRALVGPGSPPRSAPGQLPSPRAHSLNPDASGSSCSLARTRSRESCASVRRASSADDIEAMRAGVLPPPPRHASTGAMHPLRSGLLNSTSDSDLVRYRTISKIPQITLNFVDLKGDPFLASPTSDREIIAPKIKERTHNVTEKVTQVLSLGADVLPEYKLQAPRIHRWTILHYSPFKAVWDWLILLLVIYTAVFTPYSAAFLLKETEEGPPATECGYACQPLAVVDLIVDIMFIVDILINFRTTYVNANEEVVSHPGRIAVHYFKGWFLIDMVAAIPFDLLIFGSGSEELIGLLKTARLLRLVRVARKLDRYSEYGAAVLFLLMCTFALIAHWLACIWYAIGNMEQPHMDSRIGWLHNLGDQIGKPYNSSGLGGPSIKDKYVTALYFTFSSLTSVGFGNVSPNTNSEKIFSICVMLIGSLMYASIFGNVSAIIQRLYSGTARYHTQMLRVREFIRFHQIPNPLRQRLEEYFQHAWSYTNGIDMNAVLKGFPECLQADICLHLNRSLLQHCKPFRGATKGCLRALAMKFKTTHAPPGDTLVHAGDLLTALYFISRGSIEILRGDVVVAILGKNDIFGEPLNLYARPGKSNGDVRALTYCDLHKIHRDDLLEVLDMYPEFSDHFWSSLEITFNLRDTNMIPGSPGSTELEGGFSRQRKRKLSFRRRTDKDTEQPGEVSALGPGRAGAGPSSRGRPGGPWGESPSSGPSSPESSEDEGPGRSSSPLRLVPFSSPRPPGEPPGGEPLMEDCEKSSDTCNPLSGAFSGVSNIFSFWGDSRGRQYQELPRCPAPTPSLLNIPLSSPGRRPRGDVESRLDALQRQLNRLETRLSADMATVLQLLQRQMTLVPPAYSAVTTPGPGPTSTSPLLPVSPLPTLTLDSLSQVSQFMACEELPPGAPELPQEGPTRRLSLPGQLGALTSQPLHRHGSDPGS
# Method: as §1
# [3] = target: T3, hERG (Homo sapiens, UniProt Q12809); experiment: as above; assay type: cell-based; conditions: human, HEK-293 cells that express hERG
# T3 construct: expressed in transfected cells; host or cells: HEK-293
# T3 sequence (Q12809 whole entry): as above
# Method: as §1
# [4] = Plasma stability assay (human)
# [5] = system: MDA-MB-231-GFP mammary fat pad tumors; experiment: In vivo efficacy, MDA-MB-231-GFP mammary fat pad tumors; set-up: species or system mouse; conditions: 100 mg/kg BW i.p. 3 times per week
# Method: Finally, to test the effect of EP on breast cancer progression in vivo, we established mammary fat pad tumors from GFP-tagged TNBC MDA-MB-231 cancer cells as we have previously described.[47] Mice were injected with TNBC cells diluted in Matrigel in their fourth mammary fat pad, and when tumors were palpable, the mice were injected via intraperitoneal (i.p.) 3 times per week with vehicle (10% ethanol) or 100 mg/kg BW of EP. […] The progression of the tumor was quantified by fluorescence image analysis obtained on a weekly basis.
# Female (3-week-old) severe combined immunodeficient (SCID) Hairless Outbred (SHO) mice (Charles River Laboratories, Wilmington, MA) were segregated into two groups (n = 3 mice/group) and housed under specific pathogen-free conditions. The mice received an autoclaved AIN 76-A phytoestrogen-free diet (Tek Global, Harlan Teklad, Madison, WI) and water ad libitum. Cell inoculations were performed under isoflurane inhalation as we previously described[47] to produce orthotopic tumors as described in the provided reference.[54] […] GFP-tagged cells were monitored weekly for the duration of the study using an iBox Explorer^2 (UVP, CA) animal imaging system. […] Tumor fluorescence intensities were analyzed using ImageJ software (National Institutes of Health, Bethesda, MD). […]
# [6] = target: T4, CYP2C19 (Homo sapiens, UniProt P33261); experiment: Microsomal CYP inhibition assay, CYP2C19; assay type: in vitro ADME; conditions: pooled human liver microsomes, probe mephenytoin; read-out: CYP-2C19 inhibition
# T4 construct: from tissue; host or cells: pooled human liver microsomes
# T4 sequence (P33261 whole entry): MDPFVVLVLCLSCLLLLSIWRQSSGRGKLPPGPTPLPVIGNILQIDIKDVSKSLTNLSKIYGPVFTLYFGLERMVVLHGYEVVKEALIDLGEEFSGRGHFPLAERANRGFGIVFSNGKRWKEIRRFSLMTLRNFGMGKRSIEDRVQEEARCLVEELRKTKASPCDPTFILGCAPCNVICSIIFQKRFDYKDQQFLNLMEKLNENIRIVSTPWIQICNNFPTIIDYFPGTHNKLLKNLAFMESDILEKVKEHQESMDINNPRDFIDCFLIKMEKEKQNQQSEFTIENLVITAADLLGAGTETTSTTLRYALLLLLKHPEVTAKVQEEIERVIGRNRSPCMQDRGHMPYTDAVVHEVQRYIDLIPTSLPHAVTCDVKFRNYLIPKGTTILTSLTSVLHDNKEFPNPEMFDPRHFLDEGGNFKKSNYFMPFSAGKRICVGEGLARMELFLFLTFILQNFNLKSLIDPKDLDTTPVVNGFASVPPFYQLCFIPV
# Method: as §1
# [7] = target: T5, CYP2B6 (Homo sapiens, UniProt P20813); experiment: Microsomal CYP inhibition assay, CYP2B6; assay type: in vitro ADME; conditions: pooled human liver microsomes, probe bupropion
# T5 construct: from tissue; host or cells: pooled human liver microsomes
# T5 sequence (P20813 1-491): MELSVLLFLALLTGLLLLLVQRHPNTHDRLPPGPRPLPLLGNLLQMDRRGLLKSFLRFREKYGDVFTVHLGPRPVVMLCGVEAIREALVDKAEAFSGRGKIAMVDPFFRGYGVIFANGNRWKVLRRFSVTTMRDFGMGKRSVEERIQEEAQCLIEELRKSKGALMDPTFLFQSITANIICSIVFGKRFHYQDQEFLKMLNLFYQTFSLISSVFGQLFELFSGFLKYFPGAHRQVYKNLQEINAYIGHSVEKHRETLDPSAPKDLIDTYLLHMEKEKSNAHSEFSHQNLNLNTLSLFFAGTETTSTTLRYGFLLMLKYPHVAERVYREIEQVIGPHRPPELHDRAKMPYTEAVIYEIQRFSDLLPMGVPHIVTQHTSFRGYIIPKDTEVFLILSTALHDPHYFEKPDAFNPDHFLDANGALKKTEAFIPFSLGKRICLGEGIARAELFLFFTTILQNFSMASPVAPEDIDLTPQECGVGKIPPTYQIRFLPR
# Method: as §1
# [8] = Plasma protein binding, rapid equilibrium dialysis (mouse); assay type: in vitro ADME; conditions: read-out: plasma binding (mouse) protein binding (converted)
# Method: This assay determines the plasma protein binding of a drug or compound and free drug concentration in plasma using rapid equilibrium dialysis. We use the Single-Use RED (rapid equilibrium dialysis, Thermo Scientific) devices to allow the aqueous component of plasma containing the free drug/compound through a dialysis membrane (MWCO ∼ 8000). Sample quantification is determined using a Waters ACQUITY-SOQ UPLC-MS-ELDS-UV system.
# [9] = target: T6, CYP3A4 (Homo sapiens, UniProt P08684); experiment: Microsomal CYP inhibition assay, CYP3A4; assay type: in vitro ADME; conditions: pooled human liver microsomes
# T6 construct: from tissue; host or cells: pooled human liver microsomes
# T6 sequence (P08684 whole entry): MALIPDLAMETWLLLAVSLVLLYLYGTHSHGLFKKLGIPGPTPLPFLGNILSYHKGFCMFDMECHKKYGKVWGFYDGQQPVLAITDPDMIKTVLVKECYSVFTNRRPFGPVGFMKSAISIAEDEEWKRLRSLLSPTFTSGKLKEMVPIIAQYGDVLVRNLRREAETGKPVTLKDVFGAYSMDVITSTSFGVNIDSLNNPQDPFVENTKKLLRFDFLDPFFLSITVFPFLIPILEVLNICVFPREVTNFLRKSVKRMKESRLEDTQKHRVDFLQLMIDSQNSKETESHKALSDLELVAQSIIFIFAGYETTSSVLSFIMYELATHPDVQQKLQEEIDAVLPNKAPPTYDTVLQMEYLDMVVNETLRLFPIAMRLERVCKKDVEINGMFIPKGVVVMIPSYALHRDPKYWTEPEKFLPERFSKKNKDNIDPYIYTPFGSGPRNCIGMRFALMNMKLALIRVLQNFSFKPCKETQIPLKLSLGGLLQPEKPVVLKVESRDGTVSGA
# Method: as §1
# T1 sequence (P11712 whole entry): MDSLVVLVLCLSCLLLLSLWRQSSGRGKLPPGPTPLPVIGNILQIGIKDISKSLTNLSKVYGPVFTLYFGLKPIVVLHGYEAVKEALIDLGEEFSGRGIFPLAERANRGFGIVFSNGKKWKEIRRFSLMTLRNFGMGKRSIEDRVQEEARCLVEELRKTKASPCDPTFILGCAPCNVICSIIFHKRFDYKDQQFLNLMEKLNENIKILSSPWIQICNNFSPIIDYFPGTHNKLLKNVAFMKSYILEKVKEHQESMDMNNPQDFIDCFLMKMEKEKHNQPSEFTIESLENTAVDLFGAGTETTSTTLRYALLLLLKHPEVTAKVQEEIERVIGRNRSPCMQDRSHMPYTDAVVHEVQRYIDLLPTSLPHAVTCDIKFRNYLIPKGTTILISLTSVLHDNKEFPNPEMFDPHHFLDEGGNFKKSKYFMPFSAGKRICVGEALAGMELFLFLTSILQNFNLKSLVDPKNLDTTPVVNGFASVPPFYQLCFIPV
structure (smiles),measurement,setting,value
"CC(C)[C@@H](C)/C=C/[C@@H](C)[C@H]1CC[C@@H]2[C@]1(C)CC[C@H]1[C@]23C=C[C@]2(C[C@@H](O)CC[C@]12C)OO3 [Compound 2, Ergosterol peroxide]",IC50,[1],> 25 µM
same,IC50,[2],> 30.2 µM
same,inhibition at 0.1 µM,"[3]; 0.1 μM, first addition",1.99%
same,inhibition at 0.3 µM,"[3]; 0.3 μM, second addition",2.99%
same,inhibition at 1 µM,"[3]; 1 μM, 3rd addition",3.04%
same,inhibition at 3 µM,"[3]; 3 μM, fourth addition",6.21%
same,inhibition at 10 µM,"[3]; 10 μM, fifth addition",10.1%
same,inhibition at 30 µM,"[3]; 30 μM, sixth addition",18.7%
same,half-life,[4],> 48 h
same,tumor growth,"[5]; by week 3, P < 0.05",decreases tumor growth
same,tumor size reduction,"[5]; end of study, vs vehicle",~17%
same,IC50,[6],19.9 µM
same,IC50,[7],> 25 µM
same,fraction unbound,[8],0.14
same,IC50,"[9]; probe midazolam, read-out: CYP3A4-Midazolam inhibition",> 25 µM
same,IC50,"[9]; probe testosterone, read-out: CYP3A4-Testos-terone inhibition",> 25 µM
